From patent US3976779A, “1,2,3,4-Tetrahydro-carbazole compounds and β-adrenergic compositions” (Boehringer Mannheim G.m.b.H., priority 1974, dated 1976)

Experiments:
in vivo = conditions: iv, mouse, i.v., dosage at which 50% of the mice die, read-out: Acute Toxicity LD50 Mouse
Procedure: (§1) The following tests were carried out to determine the toxicity and the cardiac β-receptor blocking activity of certain test compounds by determining the inhibition of the heart beat frequency increase induced by intravenous administration of isoprenalin.

cardiac β-receptor = experiment: Blocking of isoprenalin tachycardia in wake rabbits (β-receptor blocking activity); conditions: for Therapeutic Index (LD50:DE250): LD50 mouse i.v. : DE250 wake rabbit i.v.; for DE250: wake rabbits, interpolated dosage which limits frequency increase to 250 beats/min, 15 min i.v. infusion, isoprenalin i.v. 30 min after infusion
Procedure: as §1
The β-receptor blocking activity of the test compounds was tested on wake rabbits weighing between 2 to 3.5 kg. and kept in wooden cages. EKG-electrodes were inserted into the hind quarters of the rabbits s.c. (II. lead) and the heart frequency was measured based on 20 heart beats. The test compounds were then infused through a small tube to the ear vein of the rabbits over a period of 15 minutes. 30 minutes after the infusion isoprenalin (3,4-dihydro-a-[(isopropylamino)-methyl]-benzylalcohol) was injected intravenously at 1 /ug/kg.

Q: What does the source list for `CC(C)NCC(O)COc1cccc2[nH]c3c(c12)CCCC3` (stereo not shown) [Compound I, 1,2,3,4-Tetrahydro-5-(2-hydroxy-3-isopropylamino-propoxy)-carbazole]?
A: LD50 (in vivo): ~8 mg/kg; Therapeutic Index (LD50:DE250) (cardiac β-receptor): ~ 200; DE250 (cardiac β-receptor): 0.040 mg/kg i.v.

Q: Which results are given for `CC(C)(C)NCC(O)COc1cccc2[nH]c3c(c12)CCCC3` (stereo not shown) [Compound II, 1,2,3,4-Tetrahydro-5-(2-hydroxy-3-tert. butylaminopropoxy)-carbazole]?
A: LD50 (in vivo): 7 mg/kg; Therapeutic Index (LD50:DE250) (cardiac β-receptor): 875; DE250 (cardiac β-receptor): 0.008 mg/kg i.v.

Q: For `CC(C)NCC(O)COc1cccc2ccccc12` (stereo not shown) [Compound A, 1-Isopropylamino-3-(1-napthoxy)-2-propanol, reference compound], which DE250 (cardiac β-receptor) is on record?
A: Its DE250 is 0.400 mg/kg i.v.
